Test results published in patent publication US20060211071A1, “Device for aggregating, imaging and analyzing thrombi and a method of use” (Millennium Pharmaceuticals, Inc., priority 2004, published 2006).
Where a SMILES comes first, the peptide text is derived from it. Bridges are numbered along the chain shown (N, C = ends). [ ]: non-standard residue; d: D form. hArg = N=C(N)NCCCC[C@H](N)C(=O)O; Mpa = O=C(O)CCS

Key:
[1] = system: thrombi on type III collagen-coated capillaries; assay: End-point perfusion chamber assay: effect of anticoagulants on antithrombotic activity of a P2Y12 antagonist; type: cell-based, human; details: 4 minutes at 1000/sec
Description: Several anticoagulants have been studied for their effects on the antithrombotic activity of a proprietary direct P2Y12 antagonist in the perfusion chamber assay. Whole blood was perfused over type III collagen-coated capillaries for 4 minutes at 1000/sec. At the end of the experiment, thrombotic deposits were rinsed, fixed and stained with toluidine blue for measurement of thrombus size. […] FIG. 10B represents the mean grey level (MGL) of the thrombi present in the area of observation located at 8 mm from the proximal part of the capillary. Corresponding thrombus volume was determined using the graph presented on FIG. 10C. Nonanticoagulated or Factor Xa anticoagulated human blood was perfused through type III collagen-coated capillary chambers (Vitrocom, glass rectangular capillaries 0.2 by 2 mm section) at […] for 4 minutes. After staining of the thrombotic deposits with toluidine blue for 45 seconds, an En Face picture located 8 mm downstream of the proximal part of the capillary was taken. Measurement of the gray level of each thrombus or platelets located in a window 400 μm long×250 μm wide was performed, and results are expressed as mean ±SEM using the Simple PCI software (Compix Inc Imaging System). Measurement of the mean thrombus volume (μm^3/μm^2) was performed at the same location on cross sections of the thrombotic deposits after epon embedding as described by Andre et al. (2003) Circulation 108, 2697-2703. Mean thrombus volume was expressed by use of Simple PCI software and plotted against the corresponding mean grey level. By using data from human in vitro (by titrating with the GPIIb/IIIa antagonist eptifibatide) experiments, a thrombotic profile (FIG. 10C) that was then used for a rapid measurement of the thrombus volume in subsequent experiments Was established

[2] = system: thrombotic process on collagen+tissue factor coated matrix; assay: Non-anticoagulated blood perfused over fibrillar collagen plus tissue factor matrix; type: cell-based; details: therapeutic dose; arterial shear rates
Text: In this method, the thrombotic process can be evaluated with non-anticoagulated samples of blood. Non-anticoagulated samples of blood perfused over a thrombogenic matrix made of fibrillar collagen plus tissue factor generate thrombotic process under both venous and arterial shear rates that is sensitive to the action of different anticoagulants. In FIG. 22, the thrombotic profile, is inhibited by the therapeutic dose of enoxaparin and a factor Xa inhibitor indicating this system can be used to detect the activity of anticoagulants under arterial shear rates. Similarly, this method can be used to detect both platelet and fibrin deposition under venous shear rate conditions using for example fluorescently labeled antibodies directed against fibrin.

[3] = system: preformed thrombi; assay: Stability / reversal of preformed thrombi, blood perfused over collagen surface under arterial shear rates; type: cell-based, human
Description: Images are recorded at a frequency of 1 Hz.
Such assays can be used to detect antithrombotic activity of drugs that will target known effectors of thrombus stability reported in animal models of thrombosis (CD40L, Gas6, SLAM, SAP, Ephrin).

[4] = system: thrombus destabilization; details: two 300 mg loading doses of plavix and daily aspirin
[5] = system: thrombus size; assay: Sequential study of thrombotic profile of 20 healthy volunteers on clopidogrel, aspirin and their combination; type: in vivo, human; details: clopidogrel 75 mg/day, aspirin 325 mg/day
[6] = system: platelets; assay: Whole blood treated with GPIIb/IIIa antagonist perfused over collagen surface: monolayer of adhering platelets; type: cell-based; details: therapeutic dose 2-3 uM
Text: P-selectin is responsible for the recruitment of leukocytes on activated/inflamed vessel wall and at sites of platelet deposition. It is known that leukocyte recruitment under these conditions will contribute to atherosclerotic plaque progression. Therefore monitoring the number of leukocyte rolling on adhering platelets could help define people at risk to develop future atherothrombotic events (number of leukocyte recruited as a predictor of future clinical events). Whole blood treated with a GPIIb/IIIa antagonist (e.g. Integrilin at the therapeutic dose 2-3 uM) and perfused over a collagen surface generate a monolayer of adhering platelets. […] Two to three minutes after the start of the perfusion at arterial shear rates of about ˜600/sec, leukocytes stained with rhodamine 6G are being recruited and roll over the adhering platelets. Antithrombotic agents (or agents targeting the P-selectin/PSGL-1 pathway) that will reduce the amount of leukocyte rolling on adhering platelets will therefore potentially reduce the risks of atherothrombotic events.

[7] = system: thrombotic process triggered by type III collagen; details: 1000/sec
Description: The methodology and device described herein allows the monitoring in real time of the deposition of fluorescently labeled platelets into a transparent perfusion chamber (FIG. 11). The thrombosis profiler consists of a custom built epifluorescence microscope to monitor thrombus formation and a syringe pump to establish the desired flow and wall shear rate in the capillary perfusion chamber. A thermostatic sample compartment maintains the blood sample at a temperature of 37° C. Platelets are labeled by adding an aliquot of Rhodamine 6G (final concentration 1.25 μg/ml) to whole blood. […] Excitation and emission light are filtered with a set of fluorescence filters (31002, Chroma Technologies, Rockingham, Vt.). […] Images are recorded at a frequency of 1 Hz. […]
A software/algorithm has been developed in order to obtain a more representative read out of the thrombus formation over time. […] Since the use of antithrombotic drugs can increase platelet adhesion, thrombus size was represented as the measurement of the fluorescence intensity divided by total area (FIG. 12). […] Once the threshold is determined, pixels with values lower than the threshold are classified as background and pixels with values greater than the threshold are marked as foreground. […]

hirudin
effect of the anticoagulant on the antithrombotic activity of a P2Y12 antagonist [1]: least impact on the antithrombotic activity of P2Y12 antagonist

enoxaparin
thrombotic profile [2]: inhibited

O=C(O)CC(O)(CC(=O)O)C(=O)O [Citrate]
effect of the anticoagulant on the antithrombotic activity of a P2Y12 antagonist [1]: artificially increased the antithrombotic effects of P2Y12 antagonist

CNc1ncnc2c1ncn2[C@H]1C[C@H](OP(=O)(O)O)[C@@H](COP(=O)(O)O)O1 [MRS2179]
destabilization / reversal of preformed thrombi ([3]; 100 uM): did not induced thrombus reversal
slope of thrombus growth ([3]; 100 uM, added to preformed thrombi): reduced the slope of thrombus growth

COC(=O)[C@H](c1ccccc1Cl)N1CCc2sccc2C1 [clopidogrel]
antithrombotic protection in type II diabetic patient [4]: lack of protection
healthy individuals that did not respond to monotherapy [5]: 4 out of 20
mechanism of effect on thrombosis (thrombus stability) [3]: affect thrombosis via a mechanism targeting the thrombus stability

CCCCCNC(=O)c1coc([C@H]2[C@@H](Cc3ccccc3CCC(=O)O)[C@@H]3CC[C@H]2O3)n1 [Ifetroban]
mechanism of effect on thrombosis (thrombus stability) [3]: affect thrombosis via a mechanism targeting the thrombus stability
stability of preformed thrombi ([3]; 300 nM and 1 uM): significantly altered their stability

N=C(N)NCCCC[C@@H]1NC(=O)CCSSC[C@@H](C(N)=O)NC(=O)[C@@H]2CCCN2C(=O)[C@H](Cc2c[nH]c3ccccc23)NC(=O)[C@H](CC(=O)O)NC(=O)CNC1=O [Integrilin] ([Mpa][hArg]GDWPC-NH2; disulfide 1-7)
platelet activation [6]: platelet activation is not affected
thrombus formation [6]: thrombus formation is abrogated
concentration reaching maximum level of inhibition (therapeutic dose) ([7]; Factor Xa-anticoagulated blood): 2 µM
inhibition of the thrombotic process ([7]; increasing concentrations spiked into Factor Xa-anticoagulated blood): dose-dependently inhibited the thrombotic process

CC(=O)Oc1ccccc1C(=O)O [aspirin]
healthy individuals that did not respond to monotherapy [5]: 5 out of 20
mechanism of effect on thrombosis (thrombus stability) [3]: affect thrombosis via a mechanism targeting the thrombus stability

NC(N)=NCCC[C@H](NC(=O)[C@@H]1CCCN1C(=O)[C@H](N)Cc1ccccc1)C(=O)CCl [PPACK]
effect of the anticoagulant on the antithrombotic activity of a P2Y12 antagonist [1]: artificially increased the antithrombotic effects of P2Y12 antagonist

CSc1nc(N)c2ncn([C@@H]3O[C@H](COP(=O)(O)O)[C@@H](O)[C@H]3O)c2n1 [2MeSAMP]
mechanism of effect on thrombosis (thrombus stability) [3]: affect thrombosis via a mechanism targeting the thrombus stability
destabilization / reversal of preformed thrombi ([3]; 100 uM): induces the destabilization of preformed thrombi
extent of the reversal phenomenon in presence of aspirin ([3]; 2MeSAMP at 100 uM, aspirin present): increased in presence of aspirin
